Molecular target: full-length PI3Kα (full-length p110α/p85α) (Homo sapiens (Human), UniProt P42336)
Assay: PI3KA_FL fluorescence polarization kinase assay (Ki)
Format: biochemical
Conditions: 41 μM ATP
Text: Enzyme Production for Biochemical Assays: 1) PI3Kα Complex (Full Length p110α and p85α)(“PI3KA_FL”)
Genes encoding for full length p110α and p85α subunits of PI3Kα complex were subcloned from existing constructs into pFASTBAC Dual vector (Life Technologies, Carlsbad, Calif.) using standard cloning procedures. Gene encoding p110α subunit was subcloned into polyhedrine promoter while gene encoding p85α subunit was subcloned into p10 promoter. Additionally, sequence encoding for histidine tag and Tobacco Etch Virus (“TEV”) cleavage site preceded p110α ORF (Open Reading Frame). Recombinant baculovirus was generated using Bac-to-Bac protocol (Life Technologies, Carlsbad, Calif.) and large scale expression was conducted in Sf21 (Life Technologies, Carlsbad, Calif.) cells at a multiplicity of infection (“MOI”)=1 for 72 hours. Cells were lyzed in 50 mM Tris pH 8.0, 250 mM NaCl, 5% glycerol, 0.25 mM TCEP, and 20 mM imidazole. The PI3Kα complex was purified from clarified supernatant using Immobilized Metalo Affinity Chromatography (“IMAC”). The protein was eluted from the column using 50 mM Tris pH 8.0, 200 mM NaCl, 5% glycerol, 0.25 mM TCEP, and 200 mM imidazole, and further desalted into 50 mM Tris pH 8.0, 20 mM NaCl, and 0.25 mM TCEP prior to loading on MonoQ sepharose (GE Healthcare, Piscataway, N.J.). PI3Kα complex was eluted from MonoQ sepharose over 20 column volumes using 0-30% gradient of buffer B (50 mM Tris pH 8.0, 1 M NaCl, and 0.25 mM TCEP). The peak fractions were pulled together and loaded on Superdex 200 26/60 SEC column equilibrated in 50 mM Tris pH 8.0, 200 mM NaCl, and 0.5 mM TCEP. […] Purity and integrity of the complex was confirmed using LCMS, analytical SEC and SDS-PAGE (sodium dodecyl sulfate polyacrylamide gel electrophoresis) analysis.
The biochemical assays of kinase activity of full-length PI3Kα (full-length p110α/p85a) or truncated PI3Kα (p110α/iSH2 p85a) were conducted using a fluorescence polarization format similar to the procedure of Yuan J., et al., (2011) “PF-04691502, a Potent and Selective Oral Inhibitor of PI3K and mTOR Kinases with Antitumor Activity”, Mol Cancer Ther. 10, 2189-2199. The enzymatic reactions were conducted in 50 μL volumes in 96-well plates. The reactions contained human recombinant PI3Kα (2 nM full-length p110α/p85α or 0.5 nM p110α/iSH2 p85) and 30 μM phosphatidylinositol 4,5-bisphosphate (“PIP2”) (Cayman Chemical Company, Ann Arbor, Mich.) and were sonicated for 1 minute prior to adding PI3Kα enzyme (PI3KA_Act or PI3KA_FL), DMSO or test compound (12-point 3-fold serial dilution, 3 μM top dose, 2° A) DMSO final concentration), 5 mM MgCl2, 50 mM HEPES pH 7.4, 150 mM NaCl, 1 mM DTT ((2S,3S)-1,4-bis(sulfanyl)butane-2,3-diol), and 0.05% 3-[(3-cholamidopropyl)dimethylammonio]-1-propanesulfonate (“CHAPS”). […] The reactions were incubated for 30 min at room temperature, stopped with EDTA pH 8 (10 mM final concentration). In a detection plate, 15 μL of detector/probe mixture, containing 480 nM GST-Grp1 PH domain protein (University of Dundee, Dundee, UK) and 12 nM carboxytetramethylrhodamine (“TAMRA”)-tagged fluorescent phosphatidylinositol (3,4,5)-triphosphate (“PIP3”) (Echelon Biosciences, Inc., Salt Lake City, Utah) in assay buffer, was mixed with 15 μL of kinase reaction mixture. The plate was shaken for 30 minutes and fluorescence polarization values were measured on an LJL Analyst HT plate reader (Molecular Devices, Sunnyvale, Calif.). […] The inhibition constants (Ki) were calculated by fitting fluorescence polarization values, corresponding to initial reaction rates, to the Morrison equation (Morrison, J. F. (1969) Kinetics of the reversible inhibition of enzyme catalysed reactions by tight-binding inhibitors. Biochim. Biophys. Acta 185, 269-286) for tight-binding competitive inhibitors using non-linear regression method (GraphPad Prism, GraphPad Software, San Diego, Calif.).

Chain of full-length PI3Kα (full-length p110α/p85α) (P42336 whole entry): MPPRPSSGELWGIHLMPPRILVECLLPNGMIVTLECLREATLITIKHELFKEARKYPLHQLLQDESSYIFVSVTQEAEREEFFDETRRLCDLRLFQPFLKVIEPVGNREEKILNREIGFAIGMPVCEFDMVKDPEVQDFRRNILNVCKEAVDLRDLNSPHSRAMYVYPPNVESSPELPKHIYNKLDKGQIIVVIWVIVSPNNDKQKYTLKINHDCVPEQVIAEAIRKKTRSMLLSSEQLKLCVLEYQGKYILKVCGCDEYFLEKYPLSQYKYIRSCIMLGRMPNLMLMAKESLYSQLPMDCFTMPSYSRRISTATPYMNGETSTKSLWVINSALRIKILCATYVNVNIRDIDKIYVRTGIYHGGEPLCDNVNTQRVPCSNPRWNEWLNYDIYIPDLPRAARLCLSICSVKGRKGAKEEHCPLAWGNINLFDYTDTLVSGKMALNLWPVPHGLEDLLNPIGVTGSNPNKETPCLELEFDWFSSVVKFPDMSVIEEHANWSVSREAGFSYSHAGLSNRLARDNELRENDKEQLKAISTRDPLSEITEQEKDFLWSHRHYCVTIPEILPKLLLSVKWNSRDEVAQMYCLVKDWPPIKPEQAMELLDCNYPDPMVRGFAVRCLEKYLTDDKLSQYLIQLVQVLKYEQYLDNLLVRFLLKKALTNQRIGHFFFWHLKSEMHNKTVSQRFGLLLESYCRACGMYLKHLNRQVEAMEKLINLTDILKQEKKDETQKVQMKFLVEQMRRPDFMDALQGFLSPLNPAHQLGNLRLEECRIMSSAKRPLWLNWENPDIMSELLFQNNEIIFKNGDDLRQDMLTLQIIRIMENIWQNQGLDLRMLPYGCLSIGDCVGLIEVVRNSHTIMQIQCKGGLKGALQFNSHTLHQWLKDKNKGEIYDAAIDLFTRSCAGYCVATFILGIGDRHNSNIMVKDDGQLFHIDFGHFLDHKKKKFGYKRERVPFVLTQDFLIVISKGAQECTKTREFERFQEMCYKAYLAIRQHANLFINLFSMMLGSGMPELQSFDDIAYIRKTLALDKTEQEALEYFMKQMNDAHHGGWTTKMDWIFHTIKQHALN
Chain of full-length PI3Kα (full-length p110α/p85α) (P27986 whole entry partner): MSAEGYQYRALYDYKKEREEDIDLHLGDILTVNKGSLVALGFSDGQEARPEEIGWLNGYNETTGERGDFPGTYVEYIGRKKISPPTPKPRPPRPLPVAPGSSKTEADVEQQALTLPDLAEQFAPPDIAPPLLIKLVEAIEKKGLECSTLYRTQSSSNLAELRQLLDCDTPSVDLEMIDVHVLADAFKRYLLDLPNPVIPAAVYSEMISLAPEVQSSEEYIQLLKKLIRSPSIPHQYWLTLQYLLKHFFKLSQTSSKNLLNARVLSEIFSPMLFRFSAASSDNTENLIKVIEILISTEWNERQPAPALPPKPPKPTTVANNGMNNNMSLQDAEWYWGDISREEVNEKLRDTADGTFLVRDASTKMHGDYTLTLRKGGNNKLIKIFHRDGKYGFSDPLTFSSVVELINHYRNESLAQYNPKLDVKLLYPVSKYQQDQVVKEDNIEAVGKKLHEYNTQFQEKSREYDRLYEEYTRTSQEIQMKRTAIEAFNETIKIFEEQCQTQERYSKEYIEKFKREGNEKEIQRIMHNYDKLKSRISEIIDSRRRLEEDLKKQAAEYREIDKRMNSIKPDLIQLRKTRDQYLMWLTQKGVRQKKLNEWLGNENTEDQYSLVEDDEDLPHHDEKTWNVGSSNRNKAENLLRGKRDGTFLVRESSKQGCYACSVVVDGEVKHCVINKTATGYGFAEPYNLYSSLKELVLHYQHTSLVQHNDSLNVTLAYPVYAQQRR

Compared with `CCS(=O)(=O)N1CC[C@@H](N2CCc3c(-c4cnc(N)nc4)nc(N4CCOCC4)nc32)C1` [Example 112], `CS(=O)(=O)N1CC[C@@H](N2CCc3c(-c4cnc(N)nc4)nc(N4CCOCC4)nc32)C1` [Example 80] is 2.5-fold higher in “PI3KA_FL Ki” value: 0.491 nM for the first, 1.247 nM for the second.

Going from `CC(=O)N1CC[C@H](N2CCc3c(-c4cnc(N)nc4)nc(N4CCOC[C@@H]4C)nc32)C1` [Example 96] to `COCCOC(=O)N1CC[C@H](N2CCc3c(-c4cnc(N)nc4)nc(N4CCOC[C@@H]4C)nc32)C1` [Example 133], the “PI3KA_FL Ki” value falls from 2.093 nM to 0.468 nM (4.5-fold).

Compared with `C[C@H]1COCCN1c1nc(-c2cnc(N)nc2)c2c(n1)N([C@@H]1CCC(F)(F)C1)CC2` (single isomer, unassigned) [Example 88], `C[C@H]1COCCN1c1nc(-c2cnc(N)nc2)c2c(n1)N([C@H]1C[C@H](N(C)S(C)(=O)=O)C1)CC2` [Example 90] is 1.7-fold lower in “PI3KA_FL Ki” value: 0.674 nM for the first, 0.403 nM for the second.

Going from `CNS(=O)(=O)N1CC[C@@H](N2CCc3c(-c4cnc(N)nc4)nc(N4CCOCC4)nc32)C1` [Example 81] to `CNS(=O)(=O)N1CCC[C@@H](N2CCc3c(-c4cnc(N)nc4)nc(N4CCOCC4)nc32)C1` [Example 97], the “PI3KA_FL Ki” value rises from 0.788 nM to 3.632 nM (4.6-fold).

First: Nc1ncc(-c2nc(N3CCOCC3)nc3c2CCN3C2CCC2)cn1 [Example 14]
Second: Nc1ncc(-c2nc(N3CCOCC3)nc3c2CCN3C2CCOCC2)cn1 [Example 18]
The “PI3KA_FL Ki” value of the first is 2.5-fold higher: 6.843 nM for the first, 2.706 nM for the second.

First: CC(C)[C@@H](O)C(=O)N(C)[C@H]1C[C@H](N2CCc3c(-c4cnc(N)nc4)nc(N4CCOC[C@@H]4C)nc32)C1 [Example 94]
Second: CO[C@@H]1CN(C(C)=O)C[C@H]1N1CCc2c(-c3cnc(N)nc3)nc(N3CCOC[C@@H]3C)nc21 [Example 98]
The “PI3KA_FL Ki” value of the first is 1.9-fold higher: 2.371 nM for the first, 1.244 nM for the second.

First: C[C@]1(O)C[C@@H](N2CCc3c(-c4cnc(N)nc4)nc(N4CCOCC4)nc32)C1 [Example 44]
Second: C[C@]1(O)C[C@H](N2CCc3c(-c4cnc(N)nc4)nc(N4CCOCC4)nc32)C1 [Example 39]
The “PI3KA_FL Ki” value of the first is 2.7-fold higher: 1.965 nM for the first, 0.738 nM for the second.

`C[C@H]1COCCN1c1nc(-c2cnc(N)nc2)c2c(n1)N([C@@H]1CN(S(N)(=O)=O)C[C@H]1O)CC2` [Example 127] and `CO[C@@H]1CN(S(C)(=O)=O)C[C@H]1N1CCc2c(-c3cnc(N)nc3)nc(N3CCOC[C@@H]3C)nc21` [Example 103] are within 1.5-fold of each other in “PI3KA_FL Ki” value: 0.789 nM for the first, 0.557 nM for the second.

`CN([C@H]1C[C@@H](N2CCc3c(-c4cnc(N)nc4)nc(N4CCOCC4)nc32)C1)S(C)(=O)=O` [Example 49] and `CS(=O)(=O)[C@H]1C[C@H](N2CCc3c(-c4cnc(N)nc4)nc(N4CCOCC4)nc32)C1` [Example 15] are within 1.5-fold of each other in “PI3KA_FL Ki” value: 0.722 nM for the first, 0.856 nM for the second.

Compared with `Nc1ncc(-c2nc(N3CCOCC3)nc3c2CCN3[C@@H]2CC[C@H](S(N)(=O)=O)C2)cn1` [Example 137], `CS(=O)(=O)[C@H]1CC[C@@H](N2CCc3c(-c4cnc(N)nc4)nc(N4CCOCC4)nc32)C1` [Example 114] is 1.9-fold higher in “PI3KA_FL Ki” value: 0.664 nM for the first, 1.268 nM for the second.

`CC(C)S(=O)(=O)N1CC(N2CCc3c(-c4cnc(N)nc4)nc(N4CCOCC4)nc32)C1` [Example 116] and `CN(C)S(=O)(=O)N1CC(N2CCc3c(-c4cnc(N)nc4)nc(N4CCOCC4)nc32)C1` [Example 110] are within 1.5-fold of each other in “PI3KA_FL Ki” value: 0.961 nM for the first, 0.735 nM for the second.

Compared with `Nc1ncc(-c2nc(N3CCOCC3)nc3c2CCN3C2CN(C=O)C2)cn1` [Example 62], `Nc1ncc(-c2nc(N3CCOCC3)nc3c2CCN3[C@H]2CCOC2)cn1` [Example 16] is 1.6-fold higher in “PI3KA_FL Ki” value: 0.888 nM for the first, 1.423 nM for the second.

`CC(=O)N1C[C@@H](C(F)F)[C@@H](N2CCc3c(-c4cnc(N)nc4)nc(N4CCOCC4)nc32)C1` [Example 60] and `CC(=O)N1C[C@H](C(F)F)[C@H](N2CCc3c(-c4cnc(N)nc4)nc(N4CCOCC4)nc32)C1` [Example 56] are within 1.5-fold of each other in “PI3KA_FL Ki” value: 27.752 nM for the first, 35.745 nM for the second.

Going from `Nc1ncc(-c2nc(N3CCOCC3)nc3c2CCN3[C@H]2C[C@H](C(N)=O)C2)cn1` [Example 53] to `CC(=O)N[C@H]1C[C@H](N2CCc3c(-c4cnc(N)nc4)nc(N4CCOCC4)nc32)C1` [Example 29], the “PI3KA_FL Ki” value rises from 0.774 nM to 5.828 nM (7.5-fold).

Compared with `CC(=O)N[C@@H]1CC[C@H]1N1CCc2c(-c3cnc(N)nc3)nc(N3CCOCC3)nc21` [Example 50], `CC(=O)N[C@H]1CC[C@@H]1N1CCc2c(-c3cnc(N)nc3)nc(N3CCOCC3)nc21` [Example 70] is 4-fold lower in “PI3KA_FL Ki” value: 18.596 nM for the first, 4.601 nM for the second.

Going from `C[C@@H](O)C(=O)N1CC[C@H](N2CCc3c(-c4cnc(N)nc4)nc(N4CCOCC4)nc32)C1` [Example 41] to `CC(=O)N1CC[C@@H](N2CCc3c(-c4cnc(N)nc4)nc(N4CCOCC4)nc32)C1` [Example 11], the “PI3KA_FL Ki” value rises from 1.376 nM to 4.095 nM (3-fold).

`Nc1ncc(-c2nc(N3CCOCC3)nc3c2CCN3[C@@H]2CCCOC2)cn1` [Example 48] and `Nc1ncc(-c2nc(N3CCOCC3)nc3c2CCN3[C@H]2CCCOC2)cn1` [Example 47] are within 1.5-fold of each other in “PI3KA_FL Ki” value: 3.543 nM for the first, 3.320 nM for the second.

First: CO[C@H]1CC[C@H](N2CCc3c(-c4cnc(N)nc4)nc(N4CCOCC4)nc32)CC1 [Example 36]
Second: CO[C@H]1C[C@H](N2CCc3c(-c4cnc(N)nc4)nc(N4CCOCC4)nc32)C1 [Example 40]
The “PI3KA_FL Ki” value of the first is 46-fold higher: 19.031 nM for the first, 0.416 nM for the second.

Going from `CS(=O)(=O)N1CCC[C@H](N2CCc3c(-c4cnc(N)nc4)nc(N4CCOCC4)nc32)C1` [Example 99] to `Nc1ncc(-c2nc(N3CCOCC3)nc3c2CCN3[C@@H]2CCN(S(N)(=O)=O)C2)cn1` [Example 84], the “PI3KA_FL Ki” value rises from 2.122 nM to 3.507 nM (1.7-fold).

`CNS(=O)(=O)[C@H]1CC[C@@H](N2CCc3c(-c4cnc(N)nc4)nc(N4CCOCC4)nc32)C1` [Example 130] and `CN(C)S(=O)(=O)[C@H]1CC[C@@H](N2CCc3c(-c4cnc(N)nc4)nc(N4CCOCC4)nc32)C1` [Example 129] are within 1.5-fold of each other in “PI3KA_FL Ki” value: 0.352 nM for the first, 0.380 nM for the second.

Compared with `CC(=O)N1C[C@H](F)[C@@H](N2CCc3c(-c4cnc(N)nc4)nc(N4CCOCC4)nc32)C1` (single isomer, unassigned) [Example 67], `CC(=O)N1C[C@@H](F)[C@H](N2CCc3c(-c4cnc(N)nc4)nc(N4CCOCC4)nc32)C1` (single isomer, unassigned) [Example 66] is 2.1-fold lower in “PI3KA_FL Ki” value: 1.899 nM for the first, 0.926 nM for the second.

Compared with `CC(=O)N1CCCC(N2CCc3c(-c4cnc(N)nc4)nc(N4CCOCC4)nc32)C1` (racemic) [Example 51], `COC(=O)N1CC[C@H](N2CCc3c(-c4cnc(N)nc4)nc(N4CCOCC4)nc32)C1` [Example 28] is 36-fold lower in “PI3KA_FL Ki” value: 18.619 nM for the first, 0.521 nM for the second.

Going from `CC(C)(C)NC(=O)N1CC[C@H](N2CCc3c(-c4cnc(N)nc4)nc(N4CCOCC4)nc32)C1` [Example 139] to `CC(C)(C)NC(=O)N1CC[C@@H](N2CCc3c(-c4cnc(N)nc4)nc(N4CCOCC4)nc32)C1` [Example 135], the “PI3KA_FL Ki” value rises from 0.596 nM to 5.159 nM (8.7-fold).

`Nc1ncc(-c2nc(N3CCOCC3)nc3c2CCN3[C@H]2CCNC(=O)C2)cn1` [Example 78] was tested, and the “PI3KA_FL Ki” value was 14.681 nM.

`CC(C)[C@@H](O)C(=O)N1CC[C@H](N2CCc3c(-c4cnc(N)nc4)nc(N4CCOCC4)nc32)C1` [Example 31] was tested, and the “PI3KA_FL Ki (nM)” value was “≦0.229 nM”.
In the case of `Nc1ncc(-c2nc(N3CCOCC3)nc3c2CCN3[C@H]2CCN(C(=O)CO)C2)cn1` [Example 25], the “PI3KA_FL Ki (nM)” value is reported as “≦0.229 nM”.
